Like-named read-outs stand apart in the source and are kept apart here.
How the values were obtained:
Assay type in all cases: cell-based
[1] = test system: Candida albicans (ATCC 10231); assay: Antimicrobial activity (MFC), C. albicans ATCC 10231; conditions: ATCC10231, C. albicans ATCC 10231, pH 4 (Sal), 1 h exposure at room temperature, read-out: Minimum Fungicidal Concentration (MFC) (≧99.9% kill)
Protocol: (§1) To determine antimicrobial activity, Escherichia coli (ATCC 25922), Staphylococcus aureus (ATCC 29213), Pseudomonas aeruginosa (ATCC 27853), and Candida albicans (ATCC 10231) were used in primary screening. In addition, Escherichia coli (MCC 80392), Staphylococcus aureus (MCC 91731), Pseudomonas aeruginosa (MCC 4438), and Candida albicans (MCC 50319), provided by Alcon Laboratories, Fort Worth, Tex., were used. The microbial cultures were diluted in sterile saline pH 4 to prepare inocula. Test compounds were titrated by stepwise two-fold dilutions in sterile saline pH 4. A total of 1.0×10^5 to 1.0×10^6 Colony Forming Units (CFU)/mL microbe was added to each tube, mixed by gentle vortexing, and then incubated at room temperature for 1 h. Microbial plating on Petri dishes (Tryptic Soy agar or Saboraud's Dextrose agar) was performed immediately after the designated exposure after neutralization of the test article dilutions in Dey-Engley Broth. Plates were incubated at 37° C., and the numbers of microbes were counted by direct colony count to quantitate the surviving microbes as CFU/mL. Positive growth controls were made with sterile 0.9% saline. Compounds were dissolved in unbuffered isotonic saline (SAL) or phosphate buffered saline (PBS) at pH 4 or pH 7 (using HCl and/or NaOH as needed). All compounds were tested three times. The results are tabulated to show the comparison of antimicrobial effectiveness range of the compounds.
(§2) Data shown are the Minimum Bactericidal Concentration (MBC) or Minimum Fungicidal Concentration (MFC) (≧99.9% kill) in μg/mL.

[2] = test system: mouse fibroblast cells (ATCC CCL-1, L929); assay: Cytotoxicity, WST-8 colorimetric assay; conditions: 60 min exposure
Protocol: Cytotoxicity was assessed by a colorimetric assay system using the Dojindo™ cell counting kit containing 2-(2-methoxy-4-nitrophenyl)-3-(4-nitrophenyl)-5-(2,4-disulfophenyl)-2H-tetrazolium, monosodium salt (WST-8). In this assay, the WST-8 reagent was bioreduced by cellular dehydrogenases to a formazan product that is highly soluble in tissue culture medium.
In a standard assay, mouse fibroblast cells (ATCC CCL-1, L929), were cultured in Minimum Essential Medium, α-medium supplemented with 10% heat inactivated fetal bovine serum, L-glutamine, penicillin and streptomycin. Cells were trypsinized and counted under the microscope and seeded at 1.5×10^4 total cells per 100 μL per well of a flat-bottom 96-well plate in order to achieve ˜80% confluence after overnight incubation at 37° C. On the day of the assay, the tissue culture medium was removed and replaced with 30 μL of fresh medium.
Test articles were prepared as 2-fold serial dilutions and 170 μL of each dilution is added into each of 4-wells (total volume per well=200 μL). The test plate was then returned to the 37° C. incubator for 60 min. Immediately after the exposed time, test article from each well was replaced with 200 μL of fresh media. Plates were incubated at 37° C. for 18-20 hours. The following day growth medium was replaced with 100 μL/well of fresh medium containing 10 μL WST-8 reagent. Cells were incubated under growth conditions (5% CO2 at 37° C. humidified incubator), protected from light, until color development was achieved (usually 1-4 hours). Absorbance was read at 450 nm with reference wavelength at 750 nm using Molecular Device SpectraMax M5 plate reader. Untreated or vehicle only treated cells receiving WST-8 reagent served as positive cell proliferation controls.
The absorbance A450/750 from each well of untreated cells and from each well within the dilution series was measured. […] Next, a non-linear regression (curve fit) analysis was performed on all the absorbance data measured from the dilution series, including the absorbance data obtained from wells of the untreated control cells. For each dilution within the dilution series, an average A450/750 was calculated from the four replicate wells.

[3] = test system: Escherichia coli (ATCC 25922); assay: Antimicrobial activity (MBC), E. coli ATCC 25922
Protocol: as §1, §2

[4] = test system: Staphylococcus aureus (ATCC 29213); assay: Antimicrobial activity (MBC), S. aureus ATCC 29213
Protocol: as §1, §2

[5] = ATCC25922, E. coli ATCC 25922, pH 4 (Sal), 1 h exposure at room temperature, read-out: Minimum Bactericidal Concentration (MBC) (≧99.9% kill)
[6] = ATCC29213, S. aureus ATCC 29213, pH 4 (Sal), 1 h exposure at room temperature, read-out: Minimum Bactericidal Concentration (MBC) (≧99.9% kill)
[7] = ATCC25922, E. coli ATCC 25922, pH 7 (PBS), 1 h exposure at room temperature, read-out: Minimum Bactericidal Concentration (MBC) (≧99.9% kill)

Row | SMILES | MFC [1] [µg/mL] | CT50 (concentration that results in survival of 50% of the cells) ([2]; pH 4 (Sal)) [mM] | MBC [3, 5] [µg/mL] | MBC [4, 6] [µg/mL] | MBC [3, 7] [µg/mL] | CT50 (concentration that results in survival of 50% of the cells) ([2]; pH 4 (Acetate)) [mM] | MBC ([3]; ATCC25922, 1 h, pH 4, read-out: Minimum Bactericidal Concentration (MBC) (≧99.9% kill)) [µg/mL] | MBC ([4]; ATCC29213, 1 h, pH 4, read-out: Minimum Bactericidal Concentration (MBC) (≧99.9% kill)) [µg/mL] | CT50 (concentration that results in survival of 50% of the cells) ([2]; pH 7 (PBS)) [mM]
1 | CC(=O)N1CC[N+](C)(CC(C)(C)N(Cl)Cl)CC1.[Cl-] [Compound 21-110, 4-Acetyl-1-(2-(dichloroamino)-2-methylpropyl)-1-methylpiperazin-1-ium chloride] | > 1020 | 0.9 | 64 | 16 | – | – | – | – | –
2 | CC(C)(CC(=O)OCC[N+]1(C)CCCCC1)N(Cl)Cl.[Cl-] [Compound 21-93, 1-(2-(3-(Dichloroamino)-3-methylbutanoyloxy)ethyl)-1-methylpiperidinium chloride] | – | – | 4 | 2 | 512 | – | – | – | –
3 | CC[N+](C)(C)CCC(C)(C)N(Cl)Cl.[Cl-] [Compound 21-134, 3-(Dichloroamino)-N-ethyl-N,N,3-trimethylbutan-1-ammonium chloride] | – | – | – | – | – | 1.4 | – | – | –
4 | CC(C)(CCC[P+](C)(C)C)N(Cl)Cl.[Cl-] [Compound 21-106, (4-(Dichloroamino)-4-methylpentyl)trimethylphosphonium chloride] | > 256 | – | 4 | 2 | – | – | – | – | –
5 | CC(C)(C[N+]1(C)CCCCC1)N(Cl)Cl.[Cl-] [Compound 21-78, 1-(2-(dichloroamino)-2-methylpropyl)-1-methylpiperidinium chloride] | 64 | – | 16 | 8 | – | – | – | – | –
6 | CCCC[N+](C)(C)CCC(C)(C)N(Cl)Cl.[Cl-] [Compound 21-124, N-Butyl-3-(dichloroamino)-N,N,3-trimethylbutan-1-ammonium chloride] | 64 | – | 8 | 2 | – | 1.0 | – | – | –
7 | CC(C)(CC[N+]1(C)CCC(F)(F)CC1)N(Cl)Cl.[Cl-] [Compound 21-116, 1-(3-(Dichloroamino)-3-methylbutyl)-4,4-difluoro-1-methylpiperidinium chloride] | 32 | 3.0 | 4 | 2 | – | – | – | – | –
8 | CC(C)(CCS(=O)(=O)CCC[N+](C)(C)C)N(Cl)Cl.[Cl-] [Compound 21-112, S-3-(3-(Dichloroamino)-3-methylbutylsulfonyl)-N,N,N-trimethylpropan-1-ammonium chloride] | 32 | 1.4 | 8 | 2 | – | – | – | – | –
9 | CC(C)(CC[N+](C)(C)CCC[N+](C)(C)C)N(Cl)Cl.[Cl-].[Cl-] [Compound 21-128, N^1-(3-(Dichloroamino)-3-methylbutyl)-N^1,N^1,N^3,N^3,N^3-pentamethylpropane-1,3-diammonmium chloride] | 128 | – | 16 | 4 | – | 1.3 | – | – | –
10 | CC(C)(CC[N+]12CCC(CC1)CC2)N(Cl)Cl [Compound 21-120, 1-(3-(Dichloroamino)-3-methylbutyl)-1-azoniabicyclo[2.2.2]octane methanesulfonate] | 32 | – | 8 | 2 | – | 1.3 | – | – | –
11 | CC(C)(c1cn(CC[N+](C)(C)C)nn1)N(Cl)Cl.[Cl-] [Compound 21-92, 2-(4-(2-(Dichloroamino)propan-2-yl)-1H-1,2,3-triazol-1-yl)-N,N,N-trimethylethanaminium chloride] | 32 | – | 8 | 4 | – | – | – | – | –
12 | CC(C)(CC[N+](C)(C)CC(F)(F)F)N(Cl)Cl.[Cl-] [Compound 21-132, 3-(Dichloroamino)-N,N,3-trimethyl-N-(2,2,2-trifluoroethyl)butan-1-ammonium chloride] | 32 | – | 4 | 2 | – | – | – | – | –
13 | CC(C)(CC[N+]1(C)CCCC1)N(Cl)Cl.[Cl-] [Compound 21-130, 1-(3-(Dichloroamino)-3-methylbutyl)-1-methylpyrrolidinium chloride] | 32 | – | 4 | 2 | – | – | – | – | –
14 | CC(C)(CC[N+]1(C)CCCCCC1)N(Cl)Cl.[Cl-] [Compound 21-118, 1-(3-(Dichloroamino)-3-methylbutyl)-1-methylazepanium chloride] | 16 | 0.9 | 4 | 4 | – | – | – | – | –
15 | CC(C)(CCS(=O)(=O)CC[N+](C)(C)C)N(Cl)Cl.[Cl-] [Compound 21-02, 2-(3-(Dichloroamino)-3-methylbutylsulfonyl)-N,N,N-trimethylethanammonium chloride] | 32 | <0.03 | 8 | 2 | – | – | – | – | –
16 | CC(C)(C[N+](C)(C)CCS(=O)(=O)O)N(Cl)Cl.[Cl-] [Compound 21-90, 2-(Dichloroamino)-N,N-2-trimethyl-N-(2-sulfoethyl)propan-1-ammonium chloride] | 128 | – | 64 | 16 | – | – | – | – | –
17 | CCCC[N+](C)(CCCC)CCC(C)(C)N(Cl)Cl [Compound 21-48, N,N-Dibutyl-3-(dichloroamino)-N-3-dimethylbutan-1-aminium chloride] | – | – | – | – | – | – | 16 | 4 | –
18 | C[S+](C)CC(C)(C)N(Cl)Cl.[Cl-] [Compound 21-86, (2-(Dichloroamino)-2-methylpropyl)dimethylsulfonium chloride] | 128 | – | 8 | 4 | – | – | – | – | 0.6
19 | CC(C)(CCC[N+](C)(C)C)N(Cl)Cl.[Cl-] [Compound 21-108] | 256 | – | 8 | 2 | – | – | – | – | –
20 | CCCCCCCCCCCC[N+](C)(C)CCC(C)(C)N(Cl)Cl [Compound 21-138, N-(3-(Dichloroamino)-3-methylbutyl)-N,N-dimethyldodecan-1-ammonium chloride] | – | – | – | – | – | 0.5 | – | – | –
21 | CC(C)(CC[N+](C)(C)C1CCCCC1)N(Cl)Cl.[Cl-] [Compound 21-126, N-(3-(Dichloroamino)-3-methylbutyl)-N,N-dimethylcyclohexanammonium chloride] | > 1020 | – | 16 | 4 | – | 0.6 | – | – | –
22 | CC1(C)CC[N+](C)(CCC(C)(C)N(Cl)Cl)CC1.[Cl-] [Compound 21-122, 1-(3-(Dichloroamino)-3-methylbutyl)-1,4,4-trimethylpiperidinium chloride] | – | – | 16 | 4 | – | 1.0 | – | – | –
23 | CN(CC[N+](C)(C)C)C(=O)CC(C)(C)N(Cl)Cl.[Cl-] [Compound 21-14, 2-(3-(Dichloroamino)-N,3-dimethylbutanamido)-N,N,N-trimethylethanaminium chloride] | 32 | – | 16 | 2 | 256 | – | – | – | –

Reference: patent publication US8278482B2, “Antimicrobial N-chlorinated compositions” (priority 2008, dated 2012)
